Reference: patent US7476646B1, “Agricultural promoters/active ingredients” (CJB Industries, Inc., priority 2004, dated 2009)

Assays:
[1] = test system: fungal and bacterial pathogens; experiment: Field control trial, plant growth, grower rating, phytotoxicity, overall control; type: in vivo; details: comparison area
Excerpt: This composition was applied to a field to which other treatments had been applied. The conditions under which this field control was studies are summarized below.
Treatment—400 ppm Dicocodimethylammonium chloride+1200 ppm EDTA+400 ppm Citric acid+40 ppm soyamine+3000 ppm soybean oil+180 ppm Tergitol NP-6
The field was visited the day of application for a pre-spray disease rating. Major problems were observed, and minor problems were observed as well. Ratings were made on the major diseases Bacterial Spot, Grey Mold, Blight, and Leaf Spot. The observations and % ratings were also taken for Rhizoctonia, Powdery Mildew, Stem Rot, and Bacterial Speck.
The quat salt treatment was applied at a rate of 1 gallon of the composition/100 gallons of water/acre. This relatively low treatment rate provided some concerns regarding complete coverage due to the low volume of water and bushiness of the plants. Blight and Stem Rot were both located at the lower portion of the plant and concealed by a lot of foliage.
Four plants had been marked on day 1 so that their progress could be tracked both in terms of growth and disease control. All four had grown between 5 and 7 inches in height with a tremendous amount of flowering and new growth present.
The grower gave the Treatment a 4 on a scale of 1 (Poor) to 5 (Perfect), when compared to hydrogen peroxide. H is rating for hydrogen peroxide was 2.5 to 3.

Staphylococcus = details: on Staphylococcus; cited from earlier work
[2] = on contact lenses; cited from earlier work
Erwinia carotovora = experiment: Effect of quat salts on Erwinia carotovora (percent inhibition); type: cell-based
Procedure: To measure the antibacterial effectiveness of the quat salts, the effect of various salts, at an application rate of 50 ppm, was measured. The data regarding the effectiveness is summarized below:
The effectiveness of lower concentrations of the quat salts at inhibiting Erwinia carotovora infection was also measured, where various additives were also added.

Molecule	Percent Inhibition (Erwinia carotovora; application rate of 50 ppm) [%]	further results
S=C([S-])NCCNC(=S)[S-].[Zn+2] [Dithane, zinc ethylenebis(dithiocarbamate)]	–	response of diseases in treated area [1]: responding (especially on molds and mildews) but not as rapid and completely
Benzalkonium chloride [BAC]	–	effectiveness relative to other QACs tested (Staphylococcus): about 2.5; effectiveness relative to other QACs [2]: about 6 times
Cocoalkyltrimethyl ammonium chloride	25	–
Dicoco dimethyl ammonium chloride	75	Percent Inhibition (Erwinia carotovora; 30 ppm dicoco dimethyl ammonium chloride with additive (level relative to quat)): 40%
Ditallow dimethyl ammonium chloride	50	–
Soyalkyltrimethyl ammonium chloride	35	–
Tallowalkyltrimethyl ammonium chloride	30	–
